From patent US9738932B2, “Biomarkers for cardiovascular side-effects induced by cox-2 inhibitory compounds” (FIRALIS SAS, priority 2005, dated 2017)

System: mRNA expression in cardiovascular tissues
Experiment: Affymetrix GeneChip mRNA expression profiling of monkey tissues (iliac vein, pulmonary vein, aorta, carotid artery, heart) after two-week oral-gavage treatment
Conditions: iliac vein
[1] = group average (Vioxx without A60055)

Procedure: Administration of compounds. A two-week oral-gavage treatment with the Cox-2 specific inhibitor COX189 (Lumiracoxib®, Novartis) in comparison with rofecoxib (Vioxx®, Merck), and celecoxib (Celebrex®, Pharmacia/Pfizer), and with the nonselective NSAID, diclofenac (Voltaren®, Novartis) was performed. […] The test items were administered daily at doses of 100 mg/kg/day, except Vioxx® which was administered at 50 mg/kg/day.
Gene expression profiles. After a period of time (e.g., four weeks) of compound/drug administration, the treated animals are necropsied. 120 tissues are dissected and rapidly snap-frozen for genomics analysis. Organ samples are isolated for histopathological examinations and for gene expression localizations, such as by in situ hybridization.
Gene expression profiles have been generated using the Affymetrix microarray technology. (i) RNA extraction and purification: Briefly, total RNA was obtained by acid guanidinium thiocyanate-phenol-chloroform extraction (Trizol®, Invitrogen Life Technologies, San Diego, Calif.) from each frozen tissue section and the total RNA was then purified on an affinity resin (Rneasy®, Qiagen) according to the manufacturer's instructions. Total RNA was quantified by the absorbance at λ=260 nm (A260 nm) and the purity was estimated by the ratio A260 nm/A280 nm. Integrity of the RNA molecules was confirmed by non-denaturing agarose gel electrophoresis. RNA was stored at −80° C. until analysis. […] (ii) GeneChip® experiment: All GeneChip® experiments were conducted in the Genomics Factory EU following recommendations by the manufacturer of the GeneChip® system (Affymetrix, Expression Analysis Technical Manual (Affymetrix, Santa Clara, Calif., 2005). Human U133A genome arrays were used for transcript expression analysis. Double stranded cDNA was synthesized with a starting amount of approximately 5 μg full-length total RNA using the Superscript Choice System (Invitrogen Life Technologies) in the presence of a T7-(dT) 24 DNA oligonucleotide primer. Following synthesis, the cDNA was purified by phenol/chloroform/isoamyl alcohol extraction and ethanol precipitation. The purified cDNA was then transcribed in vitro using the BioArray® High Yield RNA Transcript Labeling Kit (ENZO) in the presence of biotinylated ribonucleotides form biotin labelled cRNA. The labelled cRNA was then purified on an affinity resin (Rneasy, Qiagen), quantified and fragmented. An amount of approximately 10 μg labelled cRNA was hybridized for approximately 16 hours at 45° C. to an expression probe array. The array was then washed and stained twice with streptavidin-phycoerythrin (Molecular Probes) using the GeneChip Fluidics Workstation 400 (Affymetrix). The array was then scanned twice using a confocal laser scanner (GeneArray Scanner®, Agilent) resulting in one scanned image. This resulting “.dat-file” was processed using the MASS program (Affymetrix) into a “.cel-file”. The “.cel file” was then transferred to tan Affymetrix GeneChip Laboratory Information Management System (LIMS) database, which is connected to a UNIX Sun Solaris server through a network filing system that allows for the average intensities for all probes cells (CEL file) to be downloaded into an Oracle database (NPGN). Raw data was converted to expression levels using a “target intensity” of 100. […] The data were checked for quality and loaded in the GeneSpring® software versions 5.0 (Silicon Genetics, Calif., US) for statistical analysis.
Quality control analysis of transcriptome data: The following quality measures were analysed for each sample: Scaling factor, background, percent present calls, AFFX-GAPDH 3′: AFFX-GAPDH 5′-ratio, AFFX-GAPDH 3′ variance, AFFX-Beta-actin 3′: AFFX-Beta-actin 5′-ratio.

**Q.** Which results are given for `CS(=O)(=O)c1ccc(C2=C(c3ccccc3)C(=O)OC2)cc1` [Vioxx®, rofecoxib]?
**A.** HFE (211329_x_at) fold change vs control (animal A60055): 1.8 fold; HFE (211332_x_at) fold change vs control (animal A60055): 1.6 fold; HFE (211863_x_at) fold change vs control (animal A60055): 1.8 fold; HFE (211866_x_at) fold change vs control (animal A60055): 1.6 fold; HHL (203020_at) fold change vs control (animal A60055): 2.2 fold; HLA-A (211528_x_at) fold change vs control (animal A60055): 2.4 fold; HLA-A (211529_x_at) fold change vs control (animal A60055): 2.1 fold; HLA-A (211530_x_at) fold change vs control (animal A60055): 2.3 fold; HLA-A (215313_x_at) fold change vs control (animal A60055): 1.8 fold; HLA-B (208729_x_at) fold change vs control (animal A60055): 1.8 fold; HLA-B (209140_x_at) fold change vs control (animal A60055): 1.9 fold; HLA-B (211911_x_at) fold change vs control (animal A60055): 1.8 fold; HLA-C (208812_x_at) fold change vs control (animal A60055): 1.8 fold; HLA-C (214459_x_at) fold change vs control (animal A60055): 2.4 fold; HLA-C (216526_x_at) fold change vs control (animal A60055): 2.0 fold; HLA-DMA (217478_s_at) fold change vs control (animal A60055): 2.9 fold; HLA-DMB (203932_at) fold change vs control (animal A60055): 1.5 fold; HLA-DQA1 (212671_s_at) fold change vs control (animal A60055): 8.2 fold; HLA-DQB1 (209823_x_at) fold change vs control (animal A60055): 4.3 fold; HLA-DQB1 (211654_x_at) fold change vs control (animal A60055): 7.7 fold; HLA-DQB1 (211656_x_at) fold change vs control (animal A60055): 4.1 fold; HLA-DQB2 (212998_x_at) fold change vs control (animal A60055): 10.8 fold; HLA-DRA (208894_at) fold change vs control (animal A60055): 2.3 fold; HLA-DRA (210982_s_at) fold change vs control (animal A60055): 2.1 fold; HLA-DRB1 (215193_x_at) fold change vs control (animal A60055): 2.9 fold; HLA-DRB3 (209312_x_at) fold change vs control (animal A60055): 1.9 fold; HLA-DRB6 (217362_x_at) fold change vs control (animal A60055): 2.2 fold; HLA-E (200905_x_at) fold change vs control (animal A60055): 1.6 fold; HLA-E (217456_x_at) fold change vs control (animal A60055): 1.8 fold; HLA-F (204806_x_at) fold change vs control (animal A60055): 2.1 fold; HLA-F (221875_x_at) fold change vs control (animal A60055): 2.3 fold; ICAM1 (202638_s_at) fold change vs control (animal A60055): 1.6 fold; ICAM1 (215485_s_at) fold change vs control (animal A60055): 2.1 fold; ICSBP1 (204057_at) fold change vs control (animal A60055): 2.2 fold; IFI27 (202411_at) fold change vs control (animal A60055): 20.8 fold; IFI30 (201422_at) fold change vs control (animal A60055): 2.1 fold; IFI44 (214453_s_at) fold change vs control (animal A60055): 8.2 fold; IFIT1 (203153_at) fold change vs control (animal A60055): 5.0 fold; IFIT2 (217502_at) fold change vs control (animal A60055): 4.7 fold; IFIT4 (204747_at) fold change vs control (animal A60055): 1.6 fold; IFITM2 (201315_x_at) fold change vs control (animal A60055): 1.9 fold; IFITM3 (212203_x_at) fold change vs control (animal A60055): 1.6 fold; IGF1 (209541_at) fold change vs control (animal A60055): 1.8 fold; IGFBP4 (201508_at) fold change vs control (animal A60055): 1.7 fold; IL1A (208200_at) fold change vs control (animal A60055): 2.2 fold; IL2RG (204116_at) fold change vs control (animal A60055): 2.4 fold; IL27RA (205926_at) fold change vs control (animal A60055): 2.2 fold; INDO (210029_at) fold change vs control (animal A60055): 6.5 fold; INPP5D (203332_s_at) fold change vs control (animal A60055): 1.7 fold; IRF1 (202531_at) fold change vs control (animal A60055): 3.9 fold; IRF7 (208436_s_at) fold change vs control (animal A60055): 3.4 fold; ISGF3G (203882_at) fold change vs control (animal A60055): 3.1 fold; ITGB2 (202803_s_at) fold change vs control (animal A60055): 1.7 fold; JAK1 (214377_s_at) fold change vs control (animal A60055): 2.1 fold; KLKB1 (206541_at) fold change vs control (animal A60055): 2.2 fold; LAIR1 (208071_s_at) fold change vs control (animal A60055): 3.5 fold; LCK (204890_s_at) fold change vs control (animal A60055): 2.2 fold; LCP2 (205270_s_at) fold change vs control (animal A60055): 1.7 fold; LILRB1 (207857_at) fold change vs control (animal A60055): 2.1 fold; LILRB1 (211100_x_at) fold change vs control (animal A60055): 1.8 fold; LILRB3 (208594_x_at) fold change vs control (animal A60055): 1.7 fold; LILRB3 (210225_x_at) fold change vs control (animal A60055): 2.5 fold; LRMP (204674_at) fold change vs control (animal A60055): 2.6 fold; LY86 (205859_at) fold change vs control (animal A60055): 1.8 fold; LY96 (206584_at) fold change vs control (animal A60055): 1.8 fold; LYN (210754_s_at) fold change vs control (animal A60055): 1.7 fold; MAF (209348_s_at) fold change vs control (animal A60055): 1.7 fold; PCOLCE (202465_at) fold change vs control (animal A60055): 2.2 fold; PLA2G4C (209785_s_at) fold change vs control (animal A60055): 3.3 fold; PLCL2 (216217_at) fold change vs control (animal A60055): 1.7 fold; PLSCR1 (202446_s_at) fold change vs control (animal A60055): 2.1 fold; PRC1 (218009_s_at) fold change vs control (animal A60055): 2.0 fold; PRG1 (201858_s_at) fold change vs control (animal A60055): 1.8 fold; PRG1 (201859_at) fold change vs control (animal A60055): 1.5 fold; PTPN22 (206060_s_at) fold change vs control (animal A60055): 2.5 fold; PTPRC (207238_s_at) fold change vs control (animal A60055): 1.8 fold; SOCS3 (206360_s_at) fold change vs control (animal A60055): 1.8 fold; STAT1 (209969_s_at) fold change vs control (animal A60055): 13.5 fold; STAT1 (AFFX-HUMISGF3A/M97935_5_at) fold change vs control (animal A60055): 4.3 fold; STAT1 (AFFX-HUMISGF3A/M97935_MA_at) fold change vs control (animal A60055): 5.3 fold; STAT1 (AFFX-HUMISGF3A/M97935_MB_at) fold change vs control (animal A60055): 7.1 fold; TAPBP (208829_at) fold change vs control (animal A60055): 1.6 fold; TCTEL1 (201999_s_at) fold change vs control (animal A60055): 1.7 fold; TLR1 (210176_at) fold change vs control (animal A60055): 1.7 fold; TLR2 (204924_at) fold change vs control (animal A60055): 1.7 fold; TNFAIP3 (202643_s_at) fold change vs control (animal A60055): 2.0 fold; TNFAIP3 (202644_s_at) fold change vs control (animal A60055): 2.3 fold; TNFSF6 (210865_at) fold change vs control (animal A60055): 1.9 fold; TNFSF10 (202687_s_at) fold change vs control (animal A60055): 2.9 fold; TNFSF10 (202688_at) fold change vs control (animal A60055): 2.8 fold; TRGC2 (211144_x_at) fold change vs control (animal A60055): 2.0 fold; TRGC2 (216920_s_at) fold change vs control (animal A60055): 2.4 fold; VCAM1 (203868_s_at) fold change vs control (animal A60055): 4.1 fold; XCL1 (206366_x_at) fold change vs control (animal A60055): 4.3 fold; XCL1 (214567_s_at) fold change vs control (animal A60055): 5.4 fold; XLKD1 (219059_s_at) fold change vs control (animal A60055): 1.8 fold; cig5 (213797_at) fold change vs control (animal A60055): 7.1 fold; ACE (209749_s_at) mRNA expression, Avg fold changes vs control [1]: 0.9 fold; B2M (216231_s_at) mRNA expression, Avg fold changes vs control [1]: 1.2 fold
